By IC50 is commonly meant the point on the concentration scale where inhibition reaches its midpoint.

In this experiment the target is T1, Hhat (Homo sapiens, UniProt Q5VTY9).
T1 construct: Hhat-FLAG-His8 (C-terminal tags kept), stably expressed in HEK293a cells; DDM-solubilized membrane fraction P100(sol) enriched by Ni-NTA
The experiment can be described thus: microfluidic mobility shift assay, stopped. Type of experiment: biochemical.

T1 sequence (Q5VTY9 whole entry): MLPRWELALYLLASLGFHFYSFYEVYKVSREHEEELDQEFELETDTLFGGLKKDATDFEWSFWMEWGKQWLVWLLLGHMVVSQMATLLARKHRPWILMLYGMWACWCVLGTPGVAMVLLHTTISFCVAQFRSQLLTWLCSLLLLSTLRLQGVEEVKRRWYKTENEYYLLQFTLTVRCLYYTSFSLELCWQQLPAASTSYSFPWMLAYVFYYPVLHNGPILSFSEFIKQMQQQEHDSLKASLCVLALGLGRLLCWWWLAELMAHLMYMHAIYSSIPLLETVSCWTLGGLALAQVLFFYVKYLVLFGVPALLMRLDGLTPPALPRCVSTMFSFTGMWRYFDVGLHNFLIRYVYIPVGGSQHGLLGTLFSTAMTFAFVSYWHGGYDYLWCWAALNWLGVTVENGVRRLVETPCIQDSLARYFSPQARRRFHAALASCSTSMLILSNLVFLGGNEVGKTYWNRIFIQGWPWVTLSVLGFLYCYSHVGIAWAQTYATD

With `CCC(C)CNCC(=O)N1CCc2sccc2C1c1cccc(C)c1` (stereo not shown) [RUSKI-101], the IC50 is 8.32 ± 3.69 µM.

(Values after paper PMC5453399, “Microfluidic Mobility Shift Assay for Real-Time Analysis of Peptide N-Palmitoylation” (Slas Discovery, 2017).)
